Key:
hBChE [1] = target: T1, hBChE (Homo sapiens, UniProt P06276)
[2] = tested on: murine microglial N9 cells; details: LPS 100 ng/mL, 24 h; for TREM2 and TGFβ2 expression: 1-5 μM
[3] = tested on: Aβ25–35-induced learning impairments in mice; details: 3 mg/kg IP
hBChE [4] = target: T1, hBChE; remark: listed apart in the source
rCB1R = rCB1R (Rattus norvegicus, UniProt P20272)
hCB2R = hCB2R (Homo sapiens, UniProt P34972)
Sequence of hCB2R (P34972 whole entry): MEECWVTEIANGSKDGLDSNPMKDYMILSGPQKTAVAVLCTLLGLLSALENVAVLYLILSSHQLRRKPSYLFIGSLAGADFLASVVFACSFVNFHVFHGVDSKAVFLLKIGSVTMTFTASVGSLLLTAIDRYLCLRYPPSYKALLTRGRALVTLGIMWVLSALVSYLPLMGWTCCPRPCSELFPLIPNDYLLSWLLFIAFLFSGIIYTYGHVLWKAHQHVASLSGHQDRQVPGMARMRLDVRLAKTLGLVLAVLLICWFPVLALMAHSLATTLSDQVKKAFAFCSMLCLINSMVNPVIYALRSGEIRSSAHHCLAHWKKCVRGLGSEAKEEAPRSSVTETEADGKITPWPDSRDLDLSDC

T1 sequence (P06276 29-602): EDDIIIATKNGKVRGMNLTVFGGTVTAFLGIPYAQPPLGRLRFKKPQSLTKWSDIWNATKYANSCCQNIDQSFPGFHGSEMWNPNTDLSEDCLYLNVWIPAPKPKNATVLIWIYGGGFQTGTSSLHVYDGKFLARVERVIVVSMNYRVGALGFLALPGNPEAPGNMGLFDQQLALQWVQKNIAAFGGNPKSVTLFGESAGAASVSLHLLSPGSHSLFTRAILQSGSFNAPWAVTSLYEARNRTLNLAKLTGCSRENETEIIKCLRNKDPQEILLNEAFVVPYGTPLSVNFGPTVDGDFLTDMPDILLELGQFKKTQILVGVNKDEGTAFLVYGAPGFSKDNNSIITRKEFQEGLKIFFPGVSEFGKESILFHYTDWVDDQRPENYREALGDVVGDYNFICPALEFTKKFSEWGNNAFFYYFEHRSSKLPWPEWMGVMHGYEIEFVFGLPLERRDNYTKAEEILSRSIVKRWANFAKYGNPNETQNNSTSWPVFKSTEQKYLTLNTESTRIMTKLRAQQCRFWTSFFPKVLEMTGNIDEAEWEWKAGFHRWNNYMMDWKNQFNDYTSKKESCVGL
Sequence of rCB1R (P20272 whole entry): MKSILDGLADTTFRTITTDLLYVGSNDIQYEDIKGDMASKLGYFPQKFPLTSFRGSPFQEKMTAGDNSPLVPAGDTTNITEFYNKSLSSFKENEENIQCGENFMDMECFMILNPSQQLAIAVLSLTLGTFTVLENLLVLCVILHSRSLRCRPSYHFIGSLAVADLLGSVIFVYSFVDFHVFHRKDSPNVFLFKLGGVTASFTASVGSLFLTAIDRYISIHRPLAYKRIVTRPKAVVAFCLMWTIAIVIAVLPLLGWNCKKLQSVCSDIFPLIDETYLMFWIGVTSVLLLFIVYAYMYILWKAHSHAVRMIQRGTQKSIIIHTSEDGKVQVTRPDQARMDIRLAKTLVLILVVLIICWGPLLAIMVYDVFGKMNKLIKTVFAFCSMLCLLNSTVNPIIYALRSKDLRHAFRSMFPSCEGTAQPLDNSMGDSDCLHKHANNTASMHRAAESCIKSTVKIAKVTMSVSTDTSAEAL

SMILES: CCN(CC)C(=O)c1ccc2c(c1)nc(Cc1ccc(OC(=O)N(C)C)cc1)n2CCC(C)C [15d, 4-((5-(Diethylcarbamoyl)-1-isopentyl-1H-benzo[d]imidazole-2-yl)methyl)phenyl dimethylcarbamate]
- νmax, times higher than compound 21d (hBChE [1]): 15
- TREM2 and TGFβ2 expression [2]: No parallel change
- concentration significantly decreasing expression of (i)NOS ([2]; Western blot): 1.0 µM
- effect of highest dose on Aβ25–35-induced learning deficits, passive avoidance [3]: complete blockade

SMILES: CCOc1ccc(Cc2nc3cc(OC(=O)N(C)C)ccc3n2CCC(C)C)cc1 [21a, 2-(4-Ethoxybenzyl)-1-isopentyl-1H-benzo[d]imidazole-5-yl dimethylcarbamate]
- fold less active on hBChE than counterpart 15d (hBChE [4]): more than 100 fold

SMILES: CCOc1ccc(Cc2nc3cc(OC(=O)N(C)CC)ccc3n2CCC(C)C)cc1 [21b, 2-(4-Ethoxybenzyl)-1-isopentyl-1H-benzo[d]imidazole-5-yl ethyl(methyl)carbamate]
- affinity toward CB1R (in words) (rCB1R): only exception

SMILES: CCOc1ccc(Cc2nc3cc(OC(=O)N4CCC4)ccc3n2CCC(C)C)cc1 [21d, 2-(4-Ethoxybenzyl)-1-isopentyl-1H-benzo[d]imidazole-5-yl Azetidine-1-carboxylate]
- TREM2 and TGFβ2 expression [2]: No parallel change
- concentration significantly decreasing expression of (i)NOS ([2]; Western blot): 2.5 µM
- concentration significantly reducing IL1β release ([2]; Western blot): 1.0 µM

SMILES: CCOc1ccc(Cc2nc3cc(C(=O)N(CC)CC)ccc3n2CCC(C)C)cc1 [compound 4]
- agonist character in calcium mobilization (hCB2R): full agonist

— PMC10184129 (Journal of Medicinal Chemistry, 2023)
